Data published in patent US20170340636A1, “COMPOSITIONS AND METHODS FOR INHIBITION OF AUTOPHAGY” (Board of Regents, The University of Texas System, priority 2016, published 2017).
pIC50: −log10 of the molar value.

Columns and labels:
TAOK2 [1] = target: T1, TAOK2 (Rattus norvegicus, UniProt Q9JLS3); experiment: Differential scanning fluorimetry (DSF) binding assay against TAOK2; conditions: DSF melt temperature shift of TAOK2, 5 μM TAOK2, compound 1 μM
T1 construct: made in house
T1 sequence (Q9JLS3 1-320 limits assumed): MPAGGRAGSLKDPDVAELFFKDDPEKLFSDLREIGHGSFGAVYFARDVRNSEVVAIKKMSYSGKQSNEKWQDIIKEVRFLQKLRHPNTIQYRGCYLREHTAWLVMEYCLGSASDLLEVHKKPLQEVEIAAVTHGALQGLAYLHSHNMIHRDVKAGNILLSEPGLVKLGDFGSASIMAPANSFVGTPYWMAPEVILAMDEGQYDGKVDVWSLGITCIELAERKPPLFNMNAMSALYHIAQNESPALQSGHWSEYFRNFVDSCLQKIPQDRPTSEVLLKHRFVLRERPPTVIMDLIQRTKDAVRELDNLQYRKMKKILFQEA
Method: (§1) Differential scanning fluorimetry binding assays of selected compounds against TAOK2 were conducted to measure strength of compound binding. A solution of 5 μM TAOK2, 50 mM MgCl2, 50 mM HEPES pH 7.5, and 2.5x SyproOrange(Life Technologies) was made. Compound was added to a final concentration of 1 μM. 25 μl of the reaction solution was added to the wells of a Biorad Multiplate 96 wellclear PCR plate. The plate was covered with a Biorad Microseal ‘B’ seal. Plates were read in a Biorad CFX96 Real-Time PCR system. The temperature was increased from 4° C. to 80° C., with fluorescence measurements being taken every 0.5° C. in the 6-FAM Fluorescein channel. The fluorescence response to heat curve was fit to a binding isotherm in order to determine the inflection point, which was taken as the melt temperature (Tm).
The prevalence of multiple heterocycles in the compounds is reflective of the composition of the screen (described in Methods in Supplemental Material). These 13 compounds were purchased from Chembridge Inc. and ChemDiv Inc. for measurement of direct binding using Differential Scanning Fluorimetry (DSF). DSF measures protein melt temperature (Tm) with a lipophilic dye (SyproOrange). As the temperature of the solution is increased, measurements of dye fluorescence are taken. When the protein begins to denature, hydrophobic regions in the protein are exposed, and the dye is able to bind. This binding insulates the dye from the surrounding water, reducing quenching effects and allowing fluorescence. Binding of small molecules to protein has a stabilizing effect, and this is seen by an increase in melt temperature (Table 1). The ΔTm values ranged from 3.0 to −0.6° C. The three compounds with the highest positive shifts were SW034538, SW163112, and SW083688, with 3° C., 2.2° C., and 2° C. shifts, respectively.

TAOK2 [2] = target: T1, TAOK2; experiment: Kinase-Glo high-throughput screen / re-screen of TAOK2 activity (MBP substrate); format: biochemical; conditions: estimate from HTS re-screen at 1, 3.3 and 10 μM
Method: TAOK2 activity was screened in a high-throughput fashion using Kinase-Glo (Promega). A 20 μL, solution of 50 mM HEPES pH 7.4, 50 mM MgCl2, 1.27 mg/ml MBP and 0.005 mg/ml TAOK2 was added to each well of a 384 well Corning plate using a Biotek MultiFlo dispenser. 0.2 μl of compound (columns 3 to 22, 50 μM), DMSO negative control (columns 2, 23, and 24), or staurosporine positive control (column 1, 43.4 μM) were then added to each well with a Biomek Liquid handler. 10 μl of 50 μg/ml ATP solution was added to each well with a Labsystems Multidrop384. The plates were incubated at RT for 100 minutes. 20 μl Kinase Glo (Promega) was added to each well, and allowed to incubate for 10minutes under agitation. Luminescence was read on an Envision Multilabel plate reader.
After cherry picking primary hits, the selected compounds were assayed in a limited dose-response format (10, 3.3, and 1 μM) in triplicate using the primary enzymatic assay for TAOK2. The data for each assay well was normalized to the neutral controls. The normalized activity values (replicates) for each compound in each assay were then condensed to a single value (condensed activity) using the “Robust Condensing” method in Genedata Screener®. The condensed activity is the most representative single value of the triplicates. In general, the triplicates were pre-condensed into a pair of values as follows:
In order to study the relationship between TAOK2 and both cancer and autophagy, a high-throughput screen was performed using a 200,000 compound library to discover novel small-molecule kinase inhibitors (FIG. 1A-D). Phosphorylation reactions were performed in a 384 well format against the generic kinase substrate Myelin Basic Protein (MBP) with the addition of compound. Kinase-Glo (Promega) was then added to each well to detect remaining ATP concentration. Thus, inhibitory compounds would decrease TAOK2 activity, which would increase both remaining ATP concentration and luminescence in those wells.
After the initial screen, 1645 compounds were identified with inhibition greater than three σ above the mean DMSO control (FIG. 1A). The Z′ factor of the initial screen across all plates was 0.77, indicating high significance (FIG. 1B). These compounds were then re-screened in triplicate under the same conditions, with the compounds being assayed at three concentrations (1 μM, 3.3 μM, and 10 μM, FIG. 1C, D). 432 compounds were identified after the re-screen with average inhibitions greater than 10 sigma at the 10 μM concentration. The Z′ factor of the confirmation screen was 0.52, again indicating high significance.

p38 = p38 (Homo sapiens, UniProt Q16539); experiment: DSF against p38 (selectivity panel of MAPK cascade members); format: binding; conditions: for ΔΔTm (p38): difference between the TAOK2 ΔTm and that of p38, DSF
Chain of p38 (Q16539 whole entry): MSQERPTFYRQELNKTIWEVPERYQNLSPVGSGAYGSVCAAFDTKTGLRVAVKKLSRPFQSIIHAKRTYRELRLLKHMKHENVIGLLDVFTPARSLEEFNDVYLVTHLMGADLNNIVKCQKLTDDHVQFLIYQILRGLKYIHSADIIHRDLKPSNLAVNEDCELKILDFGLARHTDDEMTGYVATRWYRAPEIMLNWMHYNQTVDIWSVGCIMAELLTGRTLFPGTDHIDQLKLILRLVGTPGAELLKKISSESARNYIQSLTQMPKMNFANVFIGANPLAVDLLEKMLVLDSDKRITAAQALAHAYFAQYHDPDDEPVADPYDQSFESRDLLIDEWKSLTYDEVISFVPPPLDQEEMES
Method: as §1
(§2) The difference between the TAOK2 ΔTm and that of p38 and ASK1 was determined. […] The majority of the other compounds were also preferentially inhibitory toward TAOK2. Of the 13 compounds, SW034538, SW172006 and SW083688 were cross-verified for selectivity by performing a specificity screen against 45 kinases commercially at Eurofins Cerep, Inc. (FIG. 3).

ASK1 = target: T2, ASK1 (Homo sapiens, UniProt Q99683); experiment: DSF against ASK1 (selectivity panel of MAPK cascade members); format: binding; conditions: difference between the TAOK2 ΔTm and that of ASK1, DSF
T2 sequence (Q99683 1-1374): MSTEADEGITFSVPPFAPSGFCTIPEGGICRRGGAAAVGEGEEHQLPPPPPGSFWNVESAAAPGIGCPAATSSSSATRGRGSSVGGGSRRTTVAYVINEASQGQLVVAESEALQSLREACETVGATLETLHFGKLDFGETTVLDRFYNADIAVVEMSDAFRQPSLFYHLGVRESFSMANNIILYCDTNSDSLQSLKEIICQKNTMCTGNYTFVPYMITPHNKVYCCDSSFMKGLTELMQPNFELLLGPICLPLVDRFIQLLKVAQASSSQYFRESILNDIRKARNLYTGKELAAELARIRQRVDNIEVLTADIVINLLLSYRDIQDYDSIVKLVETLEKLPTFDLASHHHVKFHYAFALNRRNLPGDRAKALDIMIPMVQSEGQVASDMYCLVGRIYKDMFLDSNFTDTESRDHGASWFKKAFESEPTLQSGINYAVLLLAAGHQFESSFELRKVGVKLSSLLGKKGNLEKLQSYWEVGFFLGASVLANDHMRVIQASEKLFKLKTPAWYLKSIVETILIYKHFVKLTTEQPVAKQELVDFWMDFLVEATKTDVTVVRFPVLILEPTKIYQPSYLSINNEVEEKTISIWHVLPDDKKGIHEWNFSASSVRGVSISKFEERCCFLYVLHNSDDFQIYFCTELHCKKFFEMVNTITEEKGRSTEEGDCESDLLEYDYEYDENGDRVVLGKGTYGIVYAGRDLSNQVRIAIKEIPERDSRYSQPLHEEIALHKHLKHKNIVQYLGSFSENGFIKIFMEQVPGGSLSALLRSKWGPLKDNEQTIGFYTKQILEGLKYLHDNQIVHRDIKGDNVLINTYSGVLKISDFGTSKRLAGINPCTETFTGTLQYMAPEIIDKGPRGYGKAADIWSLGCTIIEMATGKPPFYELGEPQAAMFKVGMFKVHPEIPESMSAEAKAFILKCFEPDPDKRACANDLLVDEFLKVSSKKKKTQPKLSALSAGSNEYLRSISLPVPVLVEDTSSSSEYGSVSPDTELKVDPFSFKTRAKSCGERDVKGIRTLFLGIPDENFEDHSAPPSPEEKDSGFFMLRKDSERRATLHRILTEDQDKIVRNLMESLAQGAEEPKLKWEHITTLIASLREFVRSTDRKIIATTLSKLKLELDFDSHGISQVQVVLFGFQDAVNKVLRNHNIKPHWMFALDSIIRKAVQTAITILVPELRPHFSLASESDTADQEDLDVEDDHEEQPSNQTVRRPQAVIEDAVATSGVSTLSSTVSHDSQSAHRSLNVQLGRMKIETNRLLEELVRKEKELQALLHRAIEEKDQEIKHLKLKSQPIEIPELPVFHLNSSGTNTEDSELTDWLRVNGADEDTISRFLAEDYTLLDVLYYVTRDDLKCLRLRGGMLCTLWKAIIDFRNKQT
Method: as §1, §2

| ΔTm (TAOK2 [1]) [°C] | pIC50 (TAOK2 [2]) | ΔTm with respect to p38 (p38; DSF cross-reactivity with p38) [°C] | ΔΔTm (p38) (p38) [°C] | ΔΔTm (ASK1) (ASK1) [°C] | SMILES |
| --- | --- | --- | --- | --- | --- |
| 0.5 | 6.00 | – | – | – | Cc1cccc(NC(=S)N/N=C/c2c[nH]c3ccccc23)c1 [SW109820] |
| 0.1 | 5.52 | – | – | – | CCc1ccccc1Nc1ncc(-c2sc(NC(C)=O)nc2C)s1 [SW034513] |
| 1.2 | 6.22 | 0.9 | 0.3 | 1.1 | O=C(NCC1COc2ccccc2O1)c1ccc2c(=O)n(Cc3ccco3)c(=S)[nH]c2c1 (stereo not shown) [SW083604] |
| 1.6 | 5.22 | – | 1.3 | 1.2 | Cc1ccc(NCCCC(=O)N/N=C/c2cc(Br)cc(Br)c2O)cc1 [SW106178] |
